From US20040052879A1, “Method for the extraction of pharmaceutically active products from spermatophyte plants, products thus obtained and their use in the medical field, in particular as substances with anti-tumoral activity” (priority 2000, published 2004)
In brackets after ≈: the same amount, converted by molar mass.

Experiments:
[1] = test system: M14 cells (malignant melanoma); assay: Cellular cycle analysis of M14 cells by flow cytometry; type: cell-based; details: for induction of cell accumulation in stage G1/S: 72 h, lowest dose (2.5 mcg/ml)
Protocol: The cells have been resuspended in a concentration of 1×10^6/ml and incubated for different periods of time and with various doses of each substance. At the end of the incubation period the cells have been fixed in acetone/methanol 1:4, treated with 100 KU/ml of RNase and marked with propydium iodide (50 mcg/ml). The various stages of the cellular cycle have then been analyzed by means of flow cytometry with a cytometer FACscan using a suitable statistic program. […] Indeed, after only 24 h of cell incubation with C-Res and starting from a dose of 1.25 mcg/ml, a significant block of the cellular cycle on S/G2M level can be observed, with the consequent increase of the percentage of cells in S stage. Said block remains, at higher doses, constant for the following hours.

[2] = Stability of the active agent in culture medium (HPLC/GC quantification); type: physicochemical; details: for halving time in culture medium: culture medium of ex. 10 (RPMI-1640, 10% FCS); for amount still present at the end of the test: culture medium of ex. 10, 72 h
Protocol: As far as resveratrols are concerned, they can be obtained with two alternative techniques, HPLC or GC. For both techniques quantification is carried out with the internal standard method. The compound we have found to be optimal is trans4-hydroxy-stilbene, commercially available.
For HPLC the reference method with reverse-phase column can be applied, with detection at 310 nm for trans isomers and at 282 for cis isomer (Mattivi F. Solid phase extraction of trans-resveratrol from wines for HPLC analysis. Zeftschrift für Lebensmittel-Untersuchung und Forschung, 1993, 196, 522-525). The instrumental conditions are the same as those described above for viniferine. The coefficient of molar extinction of both glucosides is almost the same as the one of the corresponding aglycones, so that they can be determined as such after carrying out a correction for molecular weights (Mattivi et al. Isolation, characterization, and evolution in red wine vinification of resveratrol monomers, J. Agric. Food Chem., 1995, 43, 7, 1820-1823).
If a preparation for aqueous or hydroalcoholic matrixes is necessary, the injection should be preceded by a pre-purification step on reverse-phase cartridges according to Mattivi F. Solid phase extraction of trans-resveratrol from wines for HPLC analysis. Zeitschrift für Lebensmittel-Untersuchung und Forschung, 1993, 196, 522-525. In addition to what is contained in the aforesaid document, it has been verified that the method is suitable for all monomer stilbenes, both free and glucosides, and that the eluted fraction of ethyl acetate can be dried under a mild flow of nitrogen, in case it is necessary to carry out the exchange in another solvent and/or to further reduce the limits of quantification.
Said techniques can be used for instance to control the stability of the active agent in culture mediums, and therefore to support in vitro experimental models which are going to be described in the following examples. For instance, for the culture means described in ex.
During the experiments a series of cell lines originating from different types of tumors has been used. All cell lines have been grown and kept in a RPMI-1640 medium added with 10% fetal calf serum (FCS) and 1% penicillin-streptomycin.

[3] = test system: HT-29 cells (colorectal adenocarcinoma); assay: Apoptosis of HT-29 cells by flow cytofluorometry (PI DNA content); type: cell-based; details: 5 mcg/ml, all times of incubation (24, 48, 72 h)
Protocol: The cells have been resuspended in a concentration of 1×10^6/ml and incubated for different periods of time and with various doses of each substance. At the end of the incubation period the cells have been fixed in acetone/methanol 1:4, treated with 100 KU/ml of RNase and marked with propydium iodide (50 mcg/ml). The cells have then been analyzed by means of flow cytofluorometry using a cytometer FACscan. […] For all other doses an increase of the effect related to the time of incubation can be observed.

[4] = test system: HT-29 cells (colorectal adenocarcinoma); assay: Cellular cycle analysis of HT-29 cells by flow cytometry; type: cell-based; details: only after 48 h incubation
Protocol: The cells have been resuspended in a concentration of 1×10^6/ml and incubated for different periods of time and with various doses of each substance. At the end of the incubation period the cells have been fixed in acetone/methanol 1:4, treated with 100 KU/ml of RNase and marked with propydium iodide (50 mcg/ml). The various stages of the cellular cycle have then been analyzed by means of flow cytometry with a cytometer FACscan using a suitable statistic program. For these cells the effects on the cellular cycle (FIG. 12) are evident only after 48 h of incubation starting from a dose of 10 mcg/ml and consist in a block of the cellular cycle on G1-S/G2M level.

[5] = test system: HT-29 cells (colorectal adenocarcinoma); assay: Cell growth of HT-29 cells; type: cell-based; details: until 72 hours
Protocol: (§1) During the experiments a series of cell lines originating from different types of tumors has been used. All cell lines have been grown and kept in a RPMI-1640 medium added with 10% fetal calf serum (FCS) and 1% penicillin-streptomycin. The substances according to the invention have been dissolved in dimethyl-sulfoxide (DMSO) at an initial concentration of 100 mM and added to the cell cultures in the concentrations indicated. DMSO alone has been added to control cultures. The cells placed on a microplate in a concentration of 1×10^5/ml have been incubated with various doses of each substance and for different periods of time. At the end of the treatment cell replication has been evaluated by a cellular count carried out using a Coulter Counter.

[6] = test system: PAR-MEL cells (malignant melanoma resisting to chemotherapeutic treatments); assay: Apoptosis of PAR-MEL cells by flow cytofluorometry (PI DNA content); type: cell-based; details: 40 mcg/ml, 72 h incubation
Protocol: The cells have been resuspended in a concentration of 1×10^6/ml and incubated for different periods of time and with various doses of each substance. At the end of the incubation period the cells have been fixed in acetone/methanol 1:4, treated with 100 KU/ml of RNase and marked with propydium iodide (50 mcg/ml). The cells have then been analyzed by means of flow cytofluorometry using a cytometer FACscan.

[7] = test system: PAR-MEL cells (malignant melanoma resisting to chemotherapeutic treatments); assay: Cell mortality of PAR-MEL cells; type: cell-based; details: 40 mcg/ml
Protocol: The cells placed on a microplate in a concentration of 1×10^5/ml have been incubated with various doses of each substance and for different periods of time. At the end of the treatment cell mortality has been evaluated by a cellular count in trypan blue and/or by flow cytometry using a cytometer FACscan (Becton-Dickinson), determining the vitality of unfixed cells which have been marked with propydium iodide (PI). […] Only for the dose of 40 mcg/ml the plateau is reached after only 24 h of incubation.

[8] = test system: M14 cells (malignant melanoma); assay: Cell replication of M14 cells (Coulter Counter count); type: cell-based; details: for IC50: Homo sapiens, 72 h incubation, read-out: concentration inhibiting 50% of cell replication (CI50)
Protocol: as §1, with “Counter. Cells belonging to the M14 tumor line (malignant melanoma) have been incubated for various periods of time with 1.25, 2.5, 5, 10, 20, 40 and 80 mcg/ml of cis-resveratrol (C-Res), or DMSO alone as far as controls are concerned.” for “Counter.”

[9] = test system: PAR-MEL cells (malignant melanoma resisting to chemotherapeutic treatments); assay: Cell replication of PAR-MEL cells; type: cell-based
Protocol: as §1

[10] = test system: PAR-MEL cells (malignant melanoma resisting to chemotherapeutic treatments); assay: Cellular cycle analysis of PAR-MEL cells by flow cytometry; type: cell-based; details: after 24 h incubation
Protocol: The cells have been resuspended in a concentration of 1×10^6/ml and incubated for different periods of time and with various doses of each substance. At the end of the incubation period the cells have been fixed in acetone/methanol 1:4, treated with 100 KU/ml of RNase and marked with propydium iodide (50 mcg/ml). The various stages of the cellular cycle have then been analyzed by means of flow cytometry with a cytometer FACscan using a suitable statistic program. As far as the effects on the cellular cycle (FIG. 8) are concerned, after only 24 h of incubation of PAR-MEL cells with C-Res and starting from a dose of 5 mcg/ml, a significant block of the cellular cycle on G1-S/G2M level can be observed, with a consequent increase in the percentage of cells in S stage and at higher doses in G1 stage. Said block remains constant for the following hours.

[11] = test system: HT-29 cells (colorectal adenocarcinoma); assay: Cell mortality of HT-29 cells; type: cell-based; details: all doses (5-40 mcg/ml)
Protocol: The cells placed on a microplate in a concentration of 1×10^5/ml have been incubated with various doses of each substance and for different periods of time. At the end of the treatment cell mortality has been evaluated by a cellular count in trypan blue and/or by flow cytometry using a cytometer FACscan (Becton-Dickinson), determining the vitality of unfixed cells which have been marked with propydium iodide (PI). […] For all doses the peak of activity is detected after 48 hours of incubation.

[12] = test system: M14 cells (malignant melanoma); assay: Apoptosis of M14 cells by flow cytofluorometry (PI DNA content); type: cell-based
Protocol: The cells have been resuspended in a concentration of 1×10^6/ml and incubated for different periods of time and with various doses of each substance. At the end of the incubation period the cells have been fixed in acetone/methanol 1:4, treated with 100 KU/ml of RNase and marked with propydium iodide (50 mcg/ml). The cells have then been analyzed by means of flow cytofluorometry using a cytometer FACscan. […] Said effect is indeed particularly significant starting from a dose of 20 mcg/ml and the peak of activity can be observed after 48 h. An activity having a similar course is performed by C-Res on cell mortality (FIG. 3), even though for said parameter the percentages of cells reacting to the action of the drug are extremely higher.

In the case of `Oc1ccc(/C=C\c2cc(O)cc(O)c2)cc1` [C-Res, cis-resveratrol], the “induction of cell accumulation in stage G1/S” value [1] is reported as “could induce cell accumulation in stage G1/S”, the “dose from which significant block of the cellular cycle on S/G2M level is observed” value ([1]; after 24 h incubation) is reported as at least 1.25 µg/mL and the “halving time in culture medium” value [2] is reported as 38 h. For the same compound, the “amount still present at the end of the test” value [2] was “about 25%”, the “apoptosis (peaks of hypodiploidy)” value [3] was “absence of measurable peaks of hypodiploidy” and the “dose from which block of the cellular cycle on G1-S/G2M level is evident” value [4] was at least 10 µg/mL. For the same compound, the “inhibition of tumor growth” value ([5]; 5 and 10 mcg/ml) was “does not induce any significant effect”, the “inhibition of tumor growth” value ([5]; 20 mcg/ml) was “partial” and the “inhibition of tumor growth” value ([5]; 40 mcg/ml) was “complete”. For the same compound, the cells in apoptosis [6] was 50%, the “time at which plateau of cell mortality is reached” value [7] was 24 h and the IC50 [8] was 2.7 µg/mL (≈ 11.8 µM). The “effect on cell growth” value ([8]; all tested doses (1.25-80 mcg/ml)) was “can inhibit cell growth”, the “effect on cell replication” value ([8]; dose 40 mcg/ml) was “cytotoxic activity” and the “effect on cell replication” value ([8]; dose range 5-20 mcg/ml) was “significant cytostatic activity”. The “effect on cell replication” value ([9]; dose 20 and 40 mcg/ml) was “cytotoxic activity”, the “effect on cell replication” value ([9]; dose range 5 and 10 mcg/ml) was “significant cytostatic activity” and the “dose from which significant block of the cellular cycle on G1-S/G2M level is observed” value [10] was at least 5 µg/mL. For the same compound, the “time of peak of activity on cell mortality” value [11] was 48 h, the “dose from which increase in apoptotic cells is particularly significant” value [12] was at least 20 µg/mL and the “time of peak of apoptotic activity” value [12] was 48 h.

For `Oc1ccc(/C=C/c2cc(O)cc(O)c2)cc1` [T-Res, trans-resveratrol, reference compound], the “induction of cell accumulation in stage G1/S” value [1] was “not”, the “halving time in culture medium” value [2] was 28 h and the “amount still present at the end of the test” value [2] was “not present as such”. For the same compound, the IC50 [8] was 31.6 µg/mL (≈ 138 µM).
